Our source for the IC50 and inhibition values is ChEMBL document CHEMBL3102837, “Synthesis of novel indenoquinoxaline derivatives as potent α-glucosidase inhibitors” (Bioorg Med Chem, 2014).

Activity calls are given as the source filed them. The rule behind the calls is not given here.

In one experiment the target is Alpha-glucosidase MAL12 (Saccharomyces cerevisiae S288c, UniProt P53341). Description: Inhibition of Saccharomyces cerevisiae alpha-glucosidase using p-nitrophenyl-alpha-D-glucopyranoside as substrate preincubated for 10 mins measured after 30 mins.
A further experiment is filed under the species Homo sapiens. Description: Inhibition of alpha-chymotrypsin (unknown origin).
Experiment [1] has as its target T1, Tyrosinase (Homo sapiens) (UniProt P14679).
T1 sequence (whole entry): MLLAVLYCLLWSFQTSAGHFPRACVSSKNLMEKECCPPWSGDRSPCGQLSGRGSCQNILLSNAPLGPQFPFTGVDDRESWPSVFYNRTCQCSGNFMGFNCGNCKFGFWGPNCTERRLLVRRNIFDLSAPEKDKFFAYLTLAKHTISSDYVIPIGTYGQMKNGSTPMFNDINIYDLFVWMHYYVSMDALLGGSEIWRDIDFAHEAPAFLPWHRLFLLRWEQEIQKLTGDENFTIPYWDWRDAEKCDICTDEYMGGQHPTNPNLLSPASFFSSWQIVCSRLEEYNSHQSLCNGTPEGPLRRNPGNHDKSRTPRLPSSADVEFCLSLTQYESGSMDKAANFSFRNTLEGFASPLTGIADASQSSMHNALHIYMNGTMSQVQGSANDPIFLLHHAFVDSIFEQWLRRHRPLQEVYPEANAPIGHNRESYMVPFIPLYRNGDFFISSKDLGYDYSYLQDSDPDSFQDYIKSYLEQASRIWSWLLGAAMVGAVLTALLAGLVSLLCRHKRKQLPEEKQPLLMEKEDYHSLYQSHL
Description: Inhibition of tyrosinase (unknown origin).

Sequence of Alpha-glucosidase MAL12 (P53341 whole entry): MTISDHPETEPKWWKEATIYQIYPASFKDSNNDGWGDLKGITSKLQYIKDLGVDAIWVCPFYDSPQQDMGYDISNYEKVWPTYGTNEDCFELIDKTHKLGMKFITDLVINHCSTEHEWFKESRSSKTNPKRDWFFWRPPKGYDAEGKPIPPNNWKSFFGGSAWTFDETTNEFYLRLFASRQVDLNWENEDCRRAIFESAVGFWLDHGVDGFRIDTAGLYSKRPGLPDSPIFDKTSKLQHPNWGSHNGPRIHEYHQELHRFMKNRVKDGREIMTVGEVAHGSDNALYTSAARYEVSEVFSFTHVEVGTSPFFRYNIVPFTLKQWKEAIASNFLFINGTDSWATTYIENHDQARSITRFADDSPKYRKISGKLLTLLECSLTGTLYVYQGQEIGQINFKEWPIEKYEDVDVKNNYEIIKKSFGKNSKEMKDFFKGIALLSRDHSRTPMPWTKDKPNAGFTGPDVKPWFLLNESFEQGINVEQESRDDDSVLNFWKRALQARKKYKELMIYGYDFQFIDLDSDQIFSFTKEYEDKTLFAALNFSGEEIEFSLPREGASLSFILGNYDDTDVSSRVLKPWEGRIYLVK

Regarding `Cc1ccc(C(=O)N/N=C2/c3ccccc3-c3nc4ccccc4nc32)cc1`, the IC50 at Alpha-glucosidase MAL12 (read-out: IC50) was over 500 µM. In addition, the inhibition entry in the experiment filed under Homo sapiens is “Active”. The inhibition entry in experiment [1] is “inactive”.
For `O=C(N/N=C1/c2ccccc2-c2nc3ccccc3nc21)c1ccc(I)cc1` the same measures were 37.7 µM, “Active” and “inactive”.
For `O=C(N/N=C1/c2ccccc2-c2nc3ccccc3nc21)c1ccccc1[N+](=O)[O-]` the same measures were 23.5 µM, “Active” and “inactive”.
On the same counts, the results for `O=C(N/N=C1/c2ccccc2-c2nc3ccccc3nc21)c1cccc(Br)c1` are 113 µM, “Active” and “inactive”.
On to `O=C(N/N=C1/c2ccccc2-c2nc3ccccc3nc21)c1ccccc1`, for which the concentration for half-maximal inhibition (IC50) result on Alpha-glucosidase MAL12 is reported as “Not Active”. Also, the inhibition entry in the experiment listed under Homo sapiens was “Active”. In addition, the inhibition entry in experiment [1] is “inactive”.
`Nc1ccccc1C(=O)N/N=C1/c2ccccc2-c2nc3ccccc3nc21`: the IC50 on Alpha-glucosidase MAL12 (read-out: IC50) came to 62.3 µM. Besides, the inhibition result in the experiment filed under Homo sapiens was “Active”. Besides, in experiment [1], the inhibition result was “inactive”.
As for `O=C(N/N=C1/c2ccccc2-c2nc3ccccc3nc21)c1ccccc1Cl`, at Alpha-glucosidase MAL12 (read-out: IC50), the IC50 was determined as 25.9 µM. In addition, the inhibition result in the experiment listed under Homo sapiens is “Active”. For the same molecule, in experiment [1], the inhibition entry was “inactive”.
In the case of `c1ccc2c(c1)/C(=N/N=C1\c3ccccc3-c3nc4ccccc4nc31)c1nc3ccccc3nc1-2`, on Alpha-glucosidase MAL12 (read-out: IC50), the IC50 stood at 18.2 µM. Also, in the experiment filed under Homo sapiens, the inhibition entry was “Active”. Also, the inhibition result in experiment [1] was “inactive”.
On to `O=C(N/N=C1/c2ccccc2-c2nc3ccccc3nc21)c1ccccc1Br`, for which, at Alpha-glucosidase MAL12 (read-out: IC50), the IC50 was found to be 23.1 µM. Also, the inhibition entry in the experiment filed under Homo sapiens was “Active”. Further, in experiment [1], the inhibition result is “inactive”.
Turning to `O=C(N/N=C1/c2ccccc2-c2nc3ccccc3nc21)c1ccc([N+](=O)[O-])cc1`, the IC50 on Alpha-glucosidase MAL12 (read-out: IC50) was determined as 29.5 µM. Besides, in the experiment listed under Homo sapiens, the inhibition result is “Active”. For the same molecule, the inhibition result in experiment [1] was “inactive”.
`O=C(N/N=C1/c2ccccc2-c2nc3ccccc3nc21)c1ccc(Cl)cc1`: the IC50 at Alpha-glucosidase MAL12 (read-out: IC50) stood at 99.9 µM. The inhibition result in the experiment filed under Homo sapiens was “Active”. Besides, the inhibition result in experiment [1] was “inactive”.
In the case of `COc1ccc(C(=O)N/N=C2/c3ccccc3-c3nc4ccccc4nc32)cc1O`, at Alpha-glucosidase MAL12, the IC50 result is “Not Active”. Besides, the inhibition result in the experiment listed under Homo sapiens was “Active”. Moreover, in experiment [1], the inhibition result is “inactive”.
Consider `O=C(N/N=C1/c2ccccc2-c2nc3ccccc3nc21)c1ccc(Br)cc1`, for which, on Alpha-glucosidase MAL12 (read-out: IC50), the IC50 came to 22.7 µM. Moreover, in the experiment filed under Homo sapiens, the inhibition result was “Active”. Besides, in experiment [1], the inhibition result was “inactive”.
For the molecule `O=C(N/N=C1/c2ccccc2-c2nc3ccccc3nc21)c1cccc(I)c1`, the IC50 on Alpha-glucosidase MAL12 (read-out: IC50) turned out to be 77.5 µM. For the same molecule, the inhibition result in the experiment filed under Homo sapiens was “Active”. Moreover, the inhibition result in experiment [1] is “inactive”.
For `O=C(N/N=C1/c2ccccc2-c2nc3ccccc3nc21)c1ccc(O)cc1` the same measures were 102 µM, “Active” and “inactive”.
Take `O=C(N/N=C1/c2ccccc2-c2nc3ccccc3nc21)c1cccc(Cl)c1`: at Alpha-glucosidase MAL12 (read-out: IC50), the IC50 was 105 µM. For the same molecule, the inhibition entry in the experiment filed under Homo sapiens is “Active”. Also, in experiment [1], the inhibition result is “inactive”.
Turning to `O=C1c2ccccc2-c2nc3ccccc3nc21`, the IC50 on Alpha-glucosidase MAL12 (read-out: IC50) was 62.5 µM.
As to `O=C(N/N=C1/c2ccccc2-c2nc3ccccc3nc21)c1cccc(F)c1`, the IC50 on Alpha-glucosidase MAL12 (read-out: IC50) came to 90.9 µM. Also, the inhibition entry in the experiment listed under Homo sapiens was “Active”. In addition, in experiment [1], the inhibition entry is “inactive”.
Consider `O=C(N/N=C1/c2ccccc2-c2nc3ccccc3nc21)c1ccc(F)cc1`, for which the IC50 at Alpha-glucosidase MAL12 (read-out: IC50) stood at 53.4 µM. In addition, in the experiment filed under Homo sapiens, the inhibition entry is “Active”. In addition, the inhibition result in experiment [1] is “inactive”.
